Data as given in ChEMBL document CHEMBL1201862, “PubChem BioAssay data set” (2004).
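1) Cells in 96-well plates. 2) Compound, 48 h, 5 concentrations. 3) Linear interpolation between surrounding doses. 4) Unreached endpoint = highest concentration. Abbreviation: GI50, concentration required for 50% inhibition of growth.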 Activity calls are given as the source filed them. Rule as the data show it: active = GI50 up to about 1.1 µM and inactive = higher.

Experiments:
Assay in all cases: DTP human tumour cell line panel, 48 h
IGROV-1 = test system: IGROV-1
DU-145 = test system: DU-145
M14 = test system: M14
HT-29 = test system: HT-29
NCI/ADR-RES = test system: NCI/ADR-RES
LOX IMVI = test system: LOX IMVI
NCI-H226 = test system: NCI-H226
HCC 2998 = test system: HCC 2998
OVCAR-8 = test system: OVCAR-8
SNB-75 = test system: SNB-75
MCF7 = test system: MCF7
SN12C = test system: SN12C
UACC-257 = test system: UACC-257
SF-268 = test system: SF-268
SK-MEL-28 = test system: SK-MEL-28
UO-31 = test system: UO-31
HL-60 = test system: HL-60
SK-MEL-5 = test system: SK-MEL-5
RXF 393 = test system: RXF 393
T47D = test system: T47D
OVCAR-5 = test system: OVCAR-5
HCT-116 = test system: HCT-116
U-251 = test system: U-251
SNB-19 = test system: SNB-19
OVCAR-3 = test system: OVCAR-3
CAKI-1 = test system: CAKI-1
MDA-MB-231 = test system: MDA-MB-231
HCT-15 = test system: HCT-15
EKVX = test system: EKVX
SW-620 = test system: SW-620
NCI-H460 = test system: NCI-H460
MOLT-4 = test system: MOLT-4
OVCAR-4 = test system: OVCAR-4
HOP-92 = test system: HOP-92
UACC-62 = test system: UACC-62
786-0 = test system: 786-0
TK-10 = test system: TK-10
ACHN = test system: ACHN
BT-549 = test system: BT-549
KM12 = test system: KM12
MDA-N = test system: MDA-N
NCI-H522 = test system: NCI-H522
NCI-H23 = test system: NCI-H23
COLO 205 = test system: COLO 205
K562 = test system: K562
Hs-578T = test system: Hs-578T
CCRF-CEM = test system: CCRF-CEM
SF-295 = test system: SF-295
A549 = test system: A549
SK-OV-3 = test system: SK-OV-3
PC-3 = test system: PC-3
Malme-3M = test system: Malme-3M
A498 = test system: A498
MDA-MB-435 = test system: MDA-MB-435
HOP-62 = test system: HOP-62
SR = test system: SR
RPMI-8226 = test system: RPMI-8226
SK-MEL-2 = test system: SK-MEL-2
SF-539 = test system: SF-539

Measured: GI50

CC1(C)CO[P@@](=S)(c2ccccn2)O[C@@H]1c1ccccc1
94.4 µM: HCT-15
inactive: IGROV-1 > 100 µM | DU-145 > 100 µM | M14 > 100 µM | HT-29 > 100 µM | NCI/ADR-RES 75 µM | LOX IMVI > 100 µM | NCI-H226 76.2 µM | HCC 2998 > 100 µM | OVCAR-8 > 100 µM | SNB-75 > 100 µM | MCF7 > 100 µM | SN12C > 100 µM | UACC-257 > 100 µM | SF-268 > 100 µM | SK-MEL-28 > 100 µM | UO-31 82.6 µM | HL-60 > 100 µM | SK-MEL-5 95.1 µM | RXF 393 > 100 µM | T47D > 100 µM | OVCAR-5 > 100 µM | HCT-116 93.3 µM | U-251 > 100 µM | SNB-19 > 100 µM | OVCAR-3 18.7 µM | CAKI-1 > 100 µM | MDA-MB-231 > 100 µM | EKVX 96.8 µM | SW-620 > 100 µM | NCI-H460 > 100 µM | MOLT-4 44.5 µM | OVCAR-4 73.6 µM | HOP-92 > 100 µM | UACC-62 > 100 µM | 786-0 > 100 µM | TK-10 > 100 µM | ACHN > 100 µM | BT-549 > 100 µM | KM12 > 100 µM | MDA-N > 100 µM | NCI-H522 70.8 µM | NCI-H23 89.3 µM | COLO 205 > 100 µM | K562 57 µM | Hs-578T > 100 µM | CCRF-CEM 64.4 µM | SF-295 > 100 µM | A549 > 100 µM | SK-OV-3 > 100 µM | PC-3 > 100 µM | Malme-3M > 100 µM | A498 > 100 µM | MDA-MB-435 > 100 µM | HOP-62 > 100 µM | SR 39.4 µM

NC(=O)CC(N)C(N)=O (configuration not stated)
> 100 µM: HCT-15
inactive: IGROV-1 > 100 µM | DU-145 > 100 µM | M14 > 100 µM | NCI/ADR-RES > 100 µM | LOX IMVI > 100 µM | NCI-H226 > 100 µM | OVCAR-8 > 100 µM | SNB-75 > 100 µM | MCF7 > 100 µM | SN12C > 100 µM | UACC-257 > 100 µM | SK-MEL-28 > 100 µM | HL-60 > 100 µM | SK-MEL-5 > 100 µM | RXF 393 > 100 µM | T47D > 100 µM | HCT-116 > 100 µM | U-251 > 100 µM | SNB-19 > 100 µM | OVCAR-3 > 100 µM | CAKI-1 > 100 µM | MDA-MB-231 > 100 µM | RPMI-8226 > 100 µM | SW-620 > 100 µM | NCI-H460 > 100 µM | MOLT-4 > 100 µM | OVCAR-4 > 100 µM | HOP-92 > 100 µM | UACC-62 > 100 µM | 786-0 > 100 µM | TK-10 > 100 µM | ACHN > 100 µM | BT-549 > 100 µM | KM12 > 100 µM | MDA-N > 100 µM | NCI-H522 > 100 µM | NCI-H23 > 100 µM | COLO 205 > 100 µM | K562 > 100 µM | Hs-578T > 100 µM | SK-MEL-2 > 100 µM | CCRF-CEM > 100 µM | SF-295 > 100 µM | A549 > 100 µM | SK-OV-3 > 100 µM | PC-3 > 100 µM | SF-539 > 100 µM | Malme-3M > 100 µM | A498 > 100 µM | MDA-MB-435 > 100 µM | HOP-62 > 100 µM | SR > 100 µM

Nc1ccc([As](=O)(O)O)cc1 [ARSANILIC ACID]
> 100 µM: HCT-15
inactive: IGROV-1 > 100 µM | DU-145 > 100 µM | M14 > 100 µM | HT-29 > 100 µM | NCI/ADR-RES > 100 µM | LOX IMVI > 100 µM | NCI-H226 > 100 µM | HCC 2998 > 100 µM | OVCAR-8 > 100 µM | SNB-75 > 100 µM | MCF7 > 100 µM | SN12C > 100 µM | UACC-257 > 100 µM | SF-268 > 100 µM | SK-MEL-28 > 100 µM | UO-31 > 100 µM | HL-60 > 100 µM | SK-MEL-5 > 100 µM | RXF 393 > 100 µM | T47D > 100 µM | OVCAR-5 > 100 µM | HCT-116 > 100 µM | U-251 > 100 µM | SNB-19 > 100 µM | OVCAR-3 > 100 µM | CAKI-1 > 100 µM | MDA-MB-231 > 100 µM | EKVX > 100 µM | SW-620 > 100 µM | NCI-H460 > 100 µM | MOLT-4 > 100 µM | OVCAR-4 > 100 µM | HOP-92 > 100 µM | UACC-62 > 100 µM | 786-0 > 100 µM | TK-10 > 100 µM | ACHN > 100 µM | BT-549 > 100 µM | KM12 > 100 µM | MDA-N > 100 µM | NCI-H522 > 100 µM | NCI-H23 > 100 µM | COLO 205 > 100 µM | K562 > 100 µM | Hs-578T > 100 µM | SK-MEL-2 > 100 µM | CCRF-CEM > 100 µM | SF-295 > 100 µM | A549 > 100 µM | SK-OV-3 > 100 µM | PC-3 > 100 µM | SF-539 > 100 µM | Malme-3M > 100 µM | A498 > 100 µM | MDA-MB-435 > 100 µM | HOP-62 > 100 µM | SR > 100 µM
